According to patent US10829493B2, “Compositions and methods for treating KIT- and PDGFRA-mediated diseases” (Blueprint Medicines Corporation, priority 2019, dated 2020):
Read-outs that look alike come from different tables or passages of the source.

Legend:
[1] = target: CYP3A4 (Homo sapiens (Human), UniProt P08684); assay: CYP inhibition in human liver microsomes, CYP3A4 (midazolam/testosterone); assay type: in vitro ADME
Method: (§1) In vitro studies in human liver microsomes were run according the standard method. […] The samples were then analyzed by LC-MS/MS for the quantification of the probe substrate left after the reaction and the IC50 values were determined by non-linear regression. The substrates for CYP2C9, CYP2D6, CYP3A4 were diclofenac, dextromethorphan and midazolam/testosterone respectively.

[2] = Pharmacokinetics following single intravenous and oral administration in rats; assay type: in vivo, Sprague-Dawley rats
Method: Assessment of pharmacokinetics following single intravenous and oral administration in rats: 3 Sprague-Dawley rats were employed for each compound for each route of administration (iv or oral). For iv administration, 1 mg/kg (dose volume=5 mL/kg) of each compound was administered by intravenous route via […] injection; whereas for oral route, 2.5 mg/kg (dose volume=5 mL/kg) was administered via oral gavage. Blood samples were obtained via tail vein at predose, 0.083, 0.25, 0.5, 1, 2, 4 and 8 hr. In addition, blood samples were also obtained at 24 hr via cardiac puncture (under anesthesia with Isoflurane) for terminal bleeding. All the blood samples were analyzed for the drug concentrations via LC/MS-MS. Pharmacokinetic parameters such as Cmax, Tmax, AUClast, AUCinf, MRTlast, MRTinf, T1/2, Vss and CL were obtained by non-compartmental analysis (NCA). Further, unbound clearance (CLu) was obtained as follows: Clu=Cl/fu,plasma.
% F was calculated as follows: % F=[AUCinf(oral)/Dose]/[AUCinf(iv)/Dose]*100 (Zhivkova & Doytchinova, Molecular Pharmaceuticals 10:3758-68 (2013)).

[3] = target: CYP2D6 (Homo sapiens (Human), UniProt P10635); assay: CYP inhibition in human liver microsomes, CYP2D6 (dextromethorphan); assay type: in vitro ADME; settings: pooled human liver microsomes, substrate dextromethorphan
Method: as §1

[4] = target: CYP2C9 (Homo sapiens (Human), UniProt P11712); assay: CYP inhibition in human liver microsomes, CYP2C9 (diclofenac); assay type: in vitro ADME; settings: pooled human liver microsomes, substrate diclofenac
Method: as §1

[5] = target: KIT D816V (Homo sapiens (Human), UniProt P10721, D816V/V560G); assay: HMC1.2 autophosphorylation assay (phospho-Y719 KIT AlphaLISA); assay type: cell-based; settings: HMC1.2 cell line, KIT autophosphorylation at tyrosine 719, 90 minutes; read-out: KIT (P-KIT HMC1.2 (nM))
Method: 10,000 HMC1.2 cells were incubated in 22 μL culture media (phenol-red free IMDM, no serum) in each well of a 384-well plate and serum starved overnight in a tissue culture incubator (5% CO2, 37° C.). […] 10 μL of 100 μg/mL streptavidin donor beads (Perkin Elmer) were added to each well, blocked from light with solid black adhesive and shaken at 300 rpm at room temperature for 2 hours. Fluorescence signal was obtained on Envision (Perkin Elmer) by AlphaScreen 384 well HTS protocol.

[6] = target: KIT D816V (Homo sapiens (Human), UniProt P10721, D816V); assay: KIT D816V biochemical enzymatic activity assay (EZReader 2 mobility shift); settings: at APPKM for ATP, 20 μM ATP, 60 minutes
Description: (§2) PDGFRα and KIT enzymatic activity was monitored using the Perkin Elmer electrophoretic mobility shift technology platform, the EZReader 2.
(§3) Within the linear, steady-state phase of the kinase enzymatic reaction, the mixed pool of phosphorylated (product) and non-phosphorylated (substrate) peptides was passed through the microfluidic system of the PerkinElmer EZ Reader 2, under an applied electric potential difference. The presence of the phosphate group on the product peptide provided a difference in mass and charge between that of the substrate peptide, resulting in a separation of the substrate and product pools in the sample (Perrin et al., Expert Opin Drug Discovery 2010 Jan. 5(1):51-63).
(§4) As the product and substrate peptide mixture passes the lasers within the instrument, these pools are detected (λex=488 nm, λem=568 nm) and resolved as separate peaks. The ratio between these peaks reflects the activity of the compound at that concentration, in that well, under those conditions.
(§5) All test articles were dissolved in 100% DMSO at a stock concentration of 10 mM. A 100×, 10-point, 4-fold serial dilution of all test compounds was created in 100% DMSO, starting at a relevant concentration, usually 1 mM. A volume of 0.130 μL of each concentration was transferred to the relevant well of a 384-well assay plate (Greiner 781 201) using a TTPLabtech Mosquito nano-liter dispenser. Using the Multidrop, the remaining constituents of the reaction were then added to the 0.130 μL of compound as follows:
The plate was read on a Caliper EZReader 2.

[7] = target: wt KIT kinase (Homo sapiens (Human), UniProt P10721); assay: Wild-type KIT binding assay (Kd determination, phage-tagged kinase, qPCR)
Method: Kd Determinations. For most assays, including wt KIT kinase, kinase-tagged T7 phage strains were prepared in an E. coli host derived from the BL21 strain. E. coli were grown to log-phase and infected with T7 phage and incubated with shaking at 32° C. until lysis. […] The liganded beads were blocked with excess biotin and washed with blocking buffer (SeaBlock (Pierce), 1% BSA, 0.05% Tween 20, 1 mM DTT) to remove unbound ligand and to reduce non-specific binding. […] Test compounds were prepared as 111× stocks in 100% DMSO. Kds were determined using an 11-point 3-fold compound dilution series with three DMSO control points. […] The compounds were then diluted directly into the assays such that the final concentration of DMSO was 0.9%. All reactions were performed in polypropylene 384-well plate. Each was a final volume of 0.02 ml. […] The kinase concentration in the eluates was measured by qPCR.
Binding Constants (Kds). Binding constants (Kds) were calculated with a standard dose-response curve using the Hill equation: Response=Background+Signal−Background 1+(KdHill Slope/DoseHill Slope). The Hill Slope was set to −1. Curves were fitted using a non-linear least square fit with the Levenberg-Marquardt algorithm.

[8] = target: PDGFRα D842V (Homo sapiens (Human), UniProt P16234, D842V); assay: PDGFRα D842V biochemical enzymatic activity assay (EZReader 2 mobility shift); settings: at APPKM for ATP, 25 μM ATP, 90 minutes
Description: as §2, §3, §4
Inhibition of KIT (D816V) PDGFRα (D842V) Mutant Biochemical Enzymatic Activity
as §5
The reaction was stopped by the addition of 70 μl of Stop buffer (100 mM HEPES pH 7.5, 0.015% Brij 35, 35 mM EDTA and 0.2% of Coating Reagent 3, Caliper Lifesciences). The plate was read on a Caliper EZReader 2.

CYP3A4, sequence (P08684 whole entry): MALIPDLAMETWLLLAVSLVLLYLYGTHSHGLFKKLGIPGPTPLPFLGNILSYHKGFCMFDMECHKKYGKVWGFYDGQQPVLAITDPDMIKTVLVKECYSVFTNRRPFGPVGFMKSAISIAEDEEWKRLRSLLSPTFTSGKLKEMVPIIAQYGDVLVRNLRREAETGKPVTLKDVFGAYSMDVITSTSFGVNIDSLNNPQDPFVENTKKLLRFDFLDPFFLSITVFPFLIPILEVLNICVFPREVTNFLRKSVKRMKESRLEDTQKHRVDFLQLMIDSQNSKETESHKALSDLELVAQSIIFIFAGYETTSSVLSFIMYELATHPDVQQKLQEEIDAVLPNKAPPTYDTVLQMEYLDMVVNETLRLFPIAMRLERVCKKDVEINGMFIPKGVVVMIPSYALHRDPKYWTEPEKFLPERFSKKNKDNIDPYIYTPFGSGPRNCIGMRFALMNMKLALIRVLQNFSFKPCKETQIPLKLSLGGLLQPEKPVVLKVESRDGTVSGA
KIT D816V (Homo sapiens (Human), UniProt P10721, D816V), sequence (P10721 26-976 D816V): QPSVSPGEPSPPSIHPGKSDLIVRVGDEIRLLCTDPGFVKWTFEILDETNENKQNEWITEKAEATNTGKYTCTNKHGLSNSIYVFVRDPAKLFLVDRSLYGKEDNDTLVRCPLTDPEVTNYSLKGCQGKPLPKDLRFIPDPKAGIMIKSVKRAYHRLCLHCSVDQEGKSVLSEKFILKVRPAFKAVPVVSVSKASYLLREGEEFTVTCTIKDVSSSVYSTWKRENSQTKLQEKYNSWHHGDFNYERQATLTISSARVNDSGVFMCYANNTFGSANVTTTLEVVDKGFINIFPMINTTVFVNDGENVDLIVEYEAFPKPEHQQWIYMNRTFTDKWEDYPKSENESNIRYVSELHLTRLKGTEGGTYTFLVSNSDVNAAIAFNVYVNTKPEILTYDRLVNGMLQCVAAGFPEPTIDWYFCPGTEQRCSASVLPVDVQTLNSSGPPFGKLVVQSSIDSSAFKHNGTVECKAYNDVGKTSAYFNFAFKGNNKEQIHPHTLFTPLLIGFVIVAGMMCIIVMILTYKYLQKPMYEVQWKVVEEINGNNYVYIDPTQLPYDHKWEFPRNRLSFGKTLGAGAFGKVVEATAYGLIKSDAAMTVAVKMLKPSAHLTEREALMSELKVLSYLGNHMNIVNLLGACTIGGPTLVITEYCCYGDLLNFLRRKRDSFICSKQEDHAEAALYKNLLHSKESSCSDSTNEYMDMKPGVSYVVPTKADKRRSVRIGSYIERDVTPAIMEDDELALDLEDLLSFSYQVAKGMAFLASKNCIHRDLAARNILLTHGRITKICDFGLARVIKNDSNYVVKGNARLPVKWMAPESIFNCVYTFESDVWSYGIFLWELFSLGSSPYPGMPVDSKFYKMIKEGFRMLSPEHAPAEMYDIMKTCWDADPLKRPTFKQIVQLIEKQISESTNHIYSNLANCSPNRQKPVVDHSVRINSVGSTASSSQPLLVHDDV
CYP2C9, sequence (P11712 whole entry): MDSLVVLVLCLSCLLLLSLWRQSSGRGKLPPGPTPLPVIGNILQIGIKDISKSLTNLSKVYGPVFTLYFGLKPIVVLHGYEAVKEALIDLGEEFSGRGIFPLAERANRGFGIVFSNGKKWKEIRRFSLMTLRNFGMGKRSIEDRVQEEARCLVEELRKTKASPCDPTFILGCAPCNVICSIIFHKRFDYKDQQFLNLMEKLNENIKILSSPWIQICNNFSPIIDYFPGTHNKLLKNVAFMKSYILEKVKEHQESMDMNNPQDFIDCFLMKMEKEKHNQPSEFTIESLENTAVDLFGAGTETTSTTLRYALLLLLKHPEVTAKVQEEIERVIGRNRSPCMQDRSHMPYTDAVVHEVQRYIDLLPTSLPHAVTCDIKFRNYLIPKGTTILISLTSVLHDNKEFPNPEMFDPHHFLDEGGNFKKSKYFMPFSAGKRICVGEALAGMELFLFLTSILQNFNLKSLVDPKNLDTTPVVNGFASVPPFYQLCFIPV
CYP2D6, sequence (P10635 whole entry): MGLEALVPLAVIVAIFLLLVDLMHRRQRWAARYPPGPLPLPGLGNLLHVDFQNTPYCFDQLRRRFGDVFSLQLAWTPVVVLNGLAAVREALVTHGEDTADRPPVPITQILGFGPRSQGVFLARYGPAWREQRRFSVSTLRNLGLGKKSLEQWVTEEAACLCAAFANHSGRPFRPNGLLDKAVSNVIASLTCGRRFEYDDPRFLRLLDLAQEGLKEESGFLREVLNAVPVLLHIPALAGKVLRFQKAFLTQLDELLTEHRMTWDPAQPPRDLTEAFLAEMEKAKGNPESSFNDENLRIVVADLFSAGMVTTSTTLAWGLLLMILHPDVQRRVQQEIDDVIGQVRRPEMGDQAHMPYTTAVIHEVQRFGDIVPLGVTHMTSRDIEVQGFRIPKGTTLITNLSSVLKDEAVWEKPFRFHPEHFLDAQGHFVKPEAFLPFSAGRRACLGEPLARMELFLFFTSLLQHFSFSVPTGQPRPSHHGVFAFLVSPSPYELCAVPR
KIT D816V (Homo sapiens (Human), UniProt P10721, D816V/V560G), sequence (P10721 26-976 V560G/D816V): as the sequence (P10721 26-976 D816V) above, with V535G counted along it
wt KIT kinase, sequence (P10721 26-976): as the sequence (P10721 26-976 D816V) above, with V791D counted along it
PDGFRα D842V, sequence (P16234 24-1089 D842V): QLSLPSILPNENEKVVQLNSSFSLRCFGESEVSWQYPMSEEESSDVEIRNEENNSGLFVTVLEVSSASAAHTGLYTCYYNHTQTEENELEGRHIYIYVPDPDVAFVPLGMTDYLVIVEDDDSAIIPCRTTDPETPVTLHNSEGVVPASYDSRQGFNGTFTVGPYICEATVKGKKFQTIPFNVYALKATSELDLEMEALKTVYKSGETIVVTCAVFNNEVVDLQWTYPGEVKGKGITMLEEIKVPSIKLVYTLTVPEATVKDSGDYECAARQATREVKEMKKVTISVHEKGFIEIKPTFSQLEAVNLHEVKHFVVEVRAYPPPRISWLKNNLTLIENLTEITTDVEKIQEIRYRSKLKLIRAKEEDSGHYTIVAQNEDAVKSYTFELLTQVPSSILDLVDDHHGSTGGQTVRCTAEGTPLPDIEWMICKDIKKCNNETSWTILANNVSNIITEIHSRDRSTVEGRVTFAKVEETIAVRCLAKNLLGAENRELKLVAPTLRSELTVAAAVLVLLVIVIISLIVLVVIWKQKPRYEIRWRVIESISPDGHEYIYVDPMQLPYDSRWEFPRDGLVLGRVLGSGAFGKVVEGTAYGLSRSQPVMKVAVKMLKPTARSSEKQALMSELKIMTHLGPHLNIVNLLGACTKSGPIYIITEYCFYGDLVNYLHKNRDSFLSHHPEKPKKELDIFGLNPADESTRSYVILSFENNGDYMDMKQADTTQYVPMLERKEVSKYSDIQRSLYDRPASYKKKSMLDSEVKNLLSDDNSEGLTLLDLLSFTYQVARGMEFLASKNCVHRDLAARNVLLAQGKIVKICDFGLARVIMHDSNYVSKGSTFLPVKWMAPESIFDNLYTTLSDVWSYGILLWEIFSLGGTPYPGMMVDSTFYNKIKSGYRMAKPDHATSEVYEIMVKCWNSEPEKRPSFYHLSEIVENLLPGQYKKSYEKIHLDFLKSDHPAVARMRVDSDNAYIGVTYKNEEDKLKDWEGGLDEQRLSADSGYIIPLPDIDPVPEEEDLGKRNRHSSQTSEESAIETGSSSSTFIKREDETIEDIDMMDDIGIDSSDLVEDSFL

SMILES | IC50 ([1]; as measured according to Example 5, substrate not stated (embodiment 14), read-out: IC50 for CYP3A4) [µM] | IC50 ([1]; pooled human liver microsomes, substrate midazolam, read-out: CYP3A4 IC50 (μM) midazolam) [µM] | IC50 ([1]; pooled human liver microsomes, substrate testosterone, read-out: CYP3A4 IC50 (μM) testosterone) [µM] | clearance ([2]; Sprague-Dawley, blood, rat, iv 1 mg/kg, read-out: Rat IV PK Cl) [mL/min/kg] | bioavailability ([2]; Sprague-Dawley, blood, rat, oral 2.5 mg/kg vs iv 1 mg/kg) [%] | Rat IV PK unbound clearance (Clu) ([2]; iv 1 mg/kg, Clu=Cl/fu,plasma) [mL/min/kg] | IC50 [3] [µM] | IC50 [4] [µM] | IC50 [5] [nM] | IC50 [6] [µM] | Kd [7] [µM] | IC50 [8] [µM]
C[C@](N)(c1ccc(F)cc1)c1cnc(N2CCN(c3ncnn4cc(-c5cnn(CCO)c5)cc34)CC2)nc1 [Compound 4, (S)-2-(4-(4-(4-(5-(1-amino-1-(4-fluorophenyl)ethyl)pyrimidin-2-yl)piperazin-1-yl)pyrrolo[2,1-f][1,2,4]triazin-6-yl)-1H-pyrazol-1-yl)ethanol] | < 10 | ≥ 10 | ≥ 10 | 12 | 80 | 582 | 10 | 7.13 | – | – | – | –
CCn1cc(-c2cc3c(N4CCN(c5ncc([C@@](C)(N)c6ccc(F)cc6)cn5)CC4)ncnn3c2)cn1 [Compound 63, reference compound] | – | – | – | – | – | – | – | – | < 4.5 | ≤ 0.0003 | 0.0151 to 0.02 | ≤ 0.0003
